In ChEMBL document CHEMBL1148453, “Parallel solution-phase synthesis of conformationally restricted congeners of pentamidine and evaluation of their antiplasmodial activities” (J Med Chem, 2004):

How the values were obtained:
A549 = test: Cytotoxicity against human lung cell carcinoma A549 cell line; format: functional, cell-based
Calf thymus DNA = test: Binding affinity for calf thymus DNA by measuring the change in midpoint of the thermal denaturation curves; format: nucleic-acid assay; settings: Bos taurus
Nucleic Acid = test: Binding affinity for poly dA-dT DNA by measuring the change in midpoint of the thermal denaturation curves; format: nucleic-acid assay
Plasmodium falciparum [1] = test: microbe, parasite or virus in culture
Description: In vitro antiparasitic activity against chloroquine-resistant Plasmodium falciparum Indochina I

Plasmodium falciparum [2] = test: microbe, parasite or virus in culture; remark: listed apart in the source
Description: In vitro antiparasitic activity against chloroquine-sensitive Plasmodium falciparum Haiti 135

`N=C(N)c1ccc(N2CCCN(c3ccc(C(=N)N)cc3)CC2)cc1` was tested, and the IC50 (A549) was > 204 µM, the ΔTm (Calf thymus DNA) was 15 °C and the ΔTm (Nucleic Acid) was 23.1 °C. It also gave an IC50 (Plasmodium falciparum [1]) of 0.1 µM and an IC50 (Plasmodium falciparum [2]) of 0.15 µM.
For `c1ccc(N2CCN(c3ccccc3)C2c2ccc(N3CCN(c4ccc(C5N(c6ccccc6)CCN5c5ccccc5)cc4)CC3)cc2)cc1`, the ΔTm (Calf thymus DNA) was -1.2 °C, the ΔTm (Nucleic Acid) was 0 °C and the IC50 (Plasmodium falciparum [1]) was > 0.5 µM. The IC50 (Plasmodium falciparum [2]) was > 0.5 µM.
For `N=C(N)c1ccc(OCCCCCOc2ccc(C(=N)N)cc2)cc1` [PENTAMIDINE], the IC50 (A549) was 40 µM, the ΔTm (Calf thymus DNA) was 11.1 °C and the ΔTm (Nucleic Acid) was 20.6 °C. The IC50 (Plasmodium falciparum [1]) was 0.045 µM and the IC50 (Plasmodium falciparum [2]) was 0.015 µM.
`CCN(CC)CCCC(C)Nc1ccnc2cc(Cl)ccc12` (stereo unspecified) [CHLOROQUINE] was tested, and the IC50 (A549) was 40 µM.
`CCOC(=O)c1ccc(N2CCN(c3ccc(C(=O)OCC)cc3)CC2)cc1` was tested, and the ΔTm (Calf thymus DNA) was 0.6 °C, the ΔTm (Nucleic Acid) was 0 °C and the IC50 (Plasmodium falciparum [1]) was > 0.5 µM. For the same compound, the IC50 (Plasmodium falciparum [2]) was > 0.5 µM.
With `CN1CCN(C)C1c1ccc(N2CCN(c3ccc(C4N(C)CCN4C)cc3)CC2)cc1` the ΔTm (Calf thymus DNA) was 2.4 °C, the ΔTm (Nucleic Acid) was 1.8 °C and the IC50 (Plasmodium falciparum [1]) was > 0.5 µM. For the same compound, the IC50 (Plasmodium falciparum [2]) was > 0.5 µM.
`c1cc(N2CCN(c3ccc(C4OCCO4)cc3)CC2)ccc1C1OCCO1` was tested, and the ΔTm (Calf thymus DNA) was -1.2 °C, the ΔTm (Nucleic Acid) was 0.1 °C and the IC50 (Plasmodium falciparum [1]) was > 0.5 µM. The IC50 (Plasmodium falciparum [2]) was > 0.5 µM.
In the case of `NNC(=O)c1ccc(N2CCN(c3ccc(C(=O)NN)cc3)CC2)cc1`, the ΔTm (Calf thymus DNA) is reported as 0.1 °C, the ΔTm (Nucleic Acid) is reported as 0 °C and the IC50 (Plasmodium falciparum [1]) is reported as > 0.5 µM. For the same compound, the IC50 (Plasmodium falciparum [2]) was > 0.5 µM.
